“Also recorded” adds a separate entry of the source.

The test system of test [1] is diabetic rats. Description: Brain atrophy in streptozotocin-diabetic rats, insulin infused into brain lateral ventricles. The class given is in vivo, rat. The note with it: 0.3 U insulin per kg body weight per day into brain lateral ventricles for 10 weeks; D+Insulin vs D+aCSF P<0.02; N=7 rats per group. As for the experimental part:
(§1) Adult rats were randomly assigned to treatment groups, some of which were treated with streptozotocin to induce diabetes. Alzet osmotic minipumps (pump rate, 0.5 μl per hour) were connected to catheters that delivered either artificial cerebrospinal fluid (D+aCSF) or 0.3 U insulin per kg body weight per day (D+Insulin) into the brain lateral ventricles of diabetic rats for 10 weeks. Pumps were replaced every two weeks. Brains were removed and the wet weight determined. The brains were homogenized in a buffer, and aliquots were taken to determine dry weight. The water weight was calculated as the difference between brain wet and dry weights. The results are shown in FIGS. 1A-1C, wherein the values are means±SEM (N=7 rats per group). Newman-Keuls posthoc test of means was calculated using CSS Statistica software package.

For test [2], the system named is diabetic rats. Description: Serum glucose and body weight in the same experiment at 10 weeks. The note with it: 0.3 U insulin per kg per day intracerebroventricular. Format: in vivo, rat. As for the experimental part:
as §1
In the same experiment described in FIGS. 1A-1C, rats were weighed and tail blood was withdrawn for glucose assay prior to euthanasia at 10 weeks. Values are means±SEM. Newman-Keuls posthoc test of means was calculated using CSS Statistica software package.

A further test concerns patients. Particulars: insulin infusion, glucose levels kept constant in patients; cited from earlier work.

As to insulin, the “brain atrophy, loss of brain wet and dry weights” value in the test with diabetic rats [1] was “prevented brain atrophy; also recorded: completely normalized brain weight”. In addition, in the test on diabetic rats [2] (D+Insulin vs D+aCSF P<0.02), the “loss of body weight” value is given as “partially prevented loss of body weights”. For the same substance, in the test with diabetic rats [2] (D+Insulin vs D+aCSF nonsignificant), the “hyperglycemia (serum glucose levels)” value was “no effect on hyperglycemia”. Moreover, in the test on patients, the “number of different genes whose expression is regulated in a muscle biopsy” value is “over 700”.

Source of the values: patent US20120195959A1, “METHOD FOR TREATING DISEASE OR DISORDER OF ADULT CENTRAL NERVOUS SYSTEM ASSOCIATED WITH TISSUE SHRINKAGE OR ATROPHY BY ADMINISTRATION OF INSULIN” (priority 2005, published 2012).
